Here are results for five compounds from patent US20260183262A1, “RNA-BINDING MOTIF PROTEIN 39 (RBM39) DEGRADERS FOR TREATMENT OF CANCERS” (RECURSION PHARMACEUTICALS, INC., priority 2022, published 2026).

Experiment [1] relates to OVCAR3 cells. The experiment is described as follows: CellTiter-Glo cell viability assay in OVCAR3 cell line. Type of experiment: cell-based, human. The conditions noted are these: 72 h. The method, then: • Cell culture: OVCAR3 is a human ovarian cancer cell line that is BRCA-proficient and HRD negative. Pharmaron in China acquired this cell line for in vitro testing. OVCAR3 human ovarian tumor cells were maintained in vitro with RPMI-1640 (Glutamax)+0.01 mg/ml insulin+20% FBS+1% PS • Cell Seeding: Cells were harvested from flask into cell culture medium and counted. Cells were diluted with culture medium for below cell densities and 8000 OVCAR cells were plated per well in a 384-well plate (PerkinElmer, Cat. #6007680), using electronic multichannel pipette in 40 μL. For the low control wells, 40 μL PBS was added. […] Plates were covered with lid and spun at 1 min/1000 rpm followed by incubation overnight at 37° C., 5% CO2. • Compound Time: SR4835 and THZ531 were dissolved at 10 mM stock solution and diluted in a 3-fold, 9-point diluted series. Cells were treated with 40 nL of SR4835 and THZ531 by plate reformat Echo550 followed by incubation at 37° C. for 72 h in a CO2 incubator. For the high control, 40 nL DMSO was added. • Readout: CellTiter-Glo@ 2.0 Reagent (Promega, G9242) was removed from the fridge and equilibrated at RT(23° C.) for 60 minutes. Plates were removed from the incubator and allowed to equilibrate to room temperature, for at least 15 minutes. 30 μL CellTiter-Glo® 2.0 Reagent was added to the assay plates and allowed to sit for 30 minutes prior to reading. Luminescence signal was read on Envision. • Calculation: Cell viability (% DMSO control) was calculated using the following equation
• Cell culture: OVCAR3 is a human ovarian cancer cell line that is BRCA-proficient and HRD negative. Pharmaron in China acquired this cell line for in vitro testing. OVCAR3 human ovarian tumor cells were maintained in vitro with RPMI-1640 (Glutamax)+0.01 mg/ml insulin+20% FBS. • Cell Seeding: Cells were harvested from flask into cell culture medium and counted. Cells were diluted with culture medium for below cell densities and 8000 OVCAR cells were plated per well in a 384-well plate (PerkinElmer, Cat. #6007680), using electronic multichannel pipette in 50 μL For the low control wells, 50 μL PBS was added. […] Cells were treated with E7820 and indisulam by plate reformat Echo software and spun 1 min/1000 rpm followed by incubation at 37° C. for 72 h in a CO2 incubator. • Readout: CellTiter-Glo@ 2.0 Reagent (Promega, G9242) was removed from the fridge and equilibrated at RT (23° C.) for 60 minutes. […] 40 μL CellTiter-Glo® 2.0 Reagent was added to the assay plates, and spun 1 min/1000 rpm, then allowed to sit for 20 minutes prior to reading. Luminescence signal was read on Envision. • Calculation: Cell viability (% DMSO control) was calculated using the following equation
In general terms: ATP-based viability assays read luminescence as a measure of living cells.

For experiment [2], the target named is T1, CDK12+Cyclin K (Homo sapiens, UniProt Q9NYV4).
T1 construct: host or cells: HEK293 (transient transfection, FuGENE HD)
The experiment is described as follows: NanoBRET target engagement intracellular kinase assay in HEK293. Type of experiment: cell-based. To be noted: HEK293 cells transfected with CDK12-NanoLuc and CCNK; up to 10 μM. As for the experimental part: • Cell culture: CDK12 NanoBRET assay kit was obtained from Reaction Biology with experiment performed by Pharmaron. HEK293 cells were cultured using 90% DMEM with 10% FBS. Cells were cultivated in T-75 flasks in a cell culture incubator set at 37° C., 5% CO^2, 95% relative humidity. Once cells reached 80-90% confluence, they were detached and split. Cultivated cells in T-75 flasks were rinsed with 5 mL PB and aspirated off. 1.5 mL trypsin was added and incubated at 37° C. for approximately 5 minutes or until the cells detached and started to float. Trypsin was inactivated by adding excess serum containing medium. • Transient Transfection of HEK293 Cells: Cell culture medium was removed from cell flask by aspiration and trypsinized, allowing cells to dissociate from flask. Trypsin was neutralized using cell culture medium and centrifuged at 200×g for 5 minutes to pellet cells. Medium was aspirated and resuspended in assay medium consisting of 99% Opti-MEM, reduced serum medium with no phenol red and 1% FBS. Density was adjusted to 2×10^5 cells/ml using assay medium. 10 μg/ml solution of DNA in Opti-MEM was prepared consisting of 9 μg/mL of CCNK, 1 ug/mL of Kinase-NanoLuc fusion vector DNA CDK12, and 1 mL of Opti-MEM. This solution was mixed thoroughly. 30 μl of FuGENE HD Transfection Reagent was added into each milliliter of DNA mixture to form lipid: DNA complex. Mixture was inverted 5-10 times and incubated at ambient temperature for 20 minutes to allow complexes to form. In a sterile, conical tub, 1 part of lipid DNA complex (1 mL) was mixed with 20 parts of HEK293 cells (20 mL) in suspension at 2×10^5 cells/mL. Tube was mixed gently by inversion 5 times. […] Lastly, 20 μL of this 3× complete substrate plus inhibitor solution was added to each well of the 384-well plate and incubated for 2-3 minutes at room temperature and read the plate on the Envision. • Calculation: BRET Ratio was calculated as follows: […]
(BRET reads energy transfer from a luciferase to a nearby fluorophore.)

For experiment [3], the system named is CDK12 knockout. The experiment is described as follows: High content phenotypic CRISPR/Cas9 screen in HUVEC cells: CDK12 knockout phenocopy. Type of experiment: cell-based, human. The conditions noted are these: wild-type HUVEC cells; machine vision analysis. The text has this: (§1) As disclosed herein, numerous small molecules have been investigated for HRD deficient and PARP inhibitor resistant cancers and it was confirmed that E7820 is efficacious alone or in combination with PARP inhibitors in preclinical mouse cancer models. To select E7820 as a potential therapeutic for this disease, a high content phenotypic whole genome arrayed CRISPR/Cas9 screen was developed in HUVEC cells to identify cellular and structural changes associated between the genetic knockout of human genes. This high dimensional biological data set of single gene knockout phenotypes was then compared to the cellular and structural changes arising from the treatment of over 200,000 small molecules in intron-controlled wild-type HUVEC cells. […] RBM39 degraders, such as these aryl sulfonamides, may therefore be used to treat cancers where CDK12 is a suitable therapeutic target, for example, cancers where patients develop resistance to PARP inhibitors or cancers with HRD negative/HR-proficient tumors. Similar to depletion of CDK12, RBM39 degraders may be used to induce a synthetic lethality phenotype when combined with DDR inhibitors such as PARP inhibitors, thus enabling treatment of patients who would not derive benefit from treatment with the DDR inhibitor in the absence of an RBM39 degrader.

Experiment [4] relates to RNA-binding motif protein 39 (RBM39) CRISPR/Cas9 knockout. The experiment is described as follows: High content phenotypic CRISPR/Cas9 screen in HUVEC cells: RBM39 knockout phenocopy. Type of experiment: cell-based, human. To be noted: wild-type HUVEC cells; machine vision analysis.
Source text: as §1

T1 sequence (Q9NYV4 whole entry): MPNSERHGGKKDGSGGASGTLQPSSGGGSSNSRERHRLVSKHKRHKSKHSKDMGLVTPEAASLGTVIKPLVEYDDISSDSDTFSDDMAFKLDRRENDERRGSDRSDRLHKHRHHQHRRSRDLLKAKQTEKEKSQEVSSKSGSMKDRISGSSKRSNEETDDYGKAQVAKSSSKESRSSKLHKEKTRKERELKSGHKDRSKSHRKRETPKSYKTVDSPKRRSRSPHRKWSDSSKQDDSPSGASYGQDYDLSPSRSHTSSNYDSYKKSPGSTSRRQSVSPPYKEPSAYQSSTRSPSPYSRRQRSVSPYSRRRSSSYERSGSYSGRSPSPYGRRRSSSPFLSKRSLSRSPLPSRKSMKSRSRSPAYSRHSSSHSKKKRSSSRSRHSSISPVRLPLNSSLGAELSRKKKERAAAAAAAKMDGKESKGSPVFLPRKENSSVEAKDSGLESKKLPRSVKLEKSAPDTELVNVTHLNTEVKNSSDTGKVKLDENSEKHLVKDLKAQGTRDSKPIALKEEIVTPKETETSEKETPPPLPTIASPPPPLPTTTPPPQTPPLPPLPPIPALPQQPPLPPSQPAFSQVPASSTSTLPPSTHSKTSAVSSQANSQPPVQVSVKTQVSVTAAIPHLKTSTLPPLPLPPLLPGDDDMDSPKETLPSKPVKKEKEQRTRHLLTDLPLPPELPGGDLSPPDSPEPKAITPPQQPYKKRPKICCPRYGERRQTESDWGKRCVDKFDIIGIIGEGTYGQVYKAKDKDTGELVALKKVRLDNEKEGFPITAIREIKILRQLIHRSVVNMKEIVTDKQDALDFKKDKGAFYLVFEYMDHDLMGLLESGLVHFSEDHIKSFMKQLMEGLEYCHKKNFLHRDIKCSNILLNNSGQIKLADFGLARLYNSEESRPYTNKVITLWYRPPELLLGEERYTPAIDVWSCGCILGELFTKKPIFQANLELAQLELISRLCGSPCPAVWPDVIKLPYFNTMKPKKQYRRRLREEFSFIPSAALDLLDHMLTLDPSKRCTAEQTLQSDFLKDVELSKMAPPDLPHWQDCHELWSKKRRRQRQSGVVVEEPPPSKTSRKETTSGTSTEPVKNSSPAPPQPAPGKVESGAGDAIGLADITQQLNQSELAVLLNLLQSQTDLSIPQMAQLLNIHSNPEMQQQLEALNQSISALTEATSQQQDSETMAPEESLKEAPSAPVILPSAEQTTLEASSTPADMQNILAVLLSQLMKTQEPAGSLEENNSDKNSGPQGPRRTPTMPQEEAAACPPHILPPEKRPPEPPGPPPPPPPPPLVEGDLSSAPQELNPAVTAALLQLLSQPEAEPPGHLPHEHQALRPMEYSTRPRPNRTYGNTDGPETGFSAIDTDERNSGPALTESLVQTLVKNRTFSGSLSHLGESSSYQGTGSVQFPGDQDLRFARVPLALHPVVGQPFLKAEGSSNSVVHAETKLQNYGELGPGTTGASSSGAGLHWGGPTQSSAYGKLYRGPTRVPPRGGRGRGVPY
T1 sequence (O75909 whole entry partner): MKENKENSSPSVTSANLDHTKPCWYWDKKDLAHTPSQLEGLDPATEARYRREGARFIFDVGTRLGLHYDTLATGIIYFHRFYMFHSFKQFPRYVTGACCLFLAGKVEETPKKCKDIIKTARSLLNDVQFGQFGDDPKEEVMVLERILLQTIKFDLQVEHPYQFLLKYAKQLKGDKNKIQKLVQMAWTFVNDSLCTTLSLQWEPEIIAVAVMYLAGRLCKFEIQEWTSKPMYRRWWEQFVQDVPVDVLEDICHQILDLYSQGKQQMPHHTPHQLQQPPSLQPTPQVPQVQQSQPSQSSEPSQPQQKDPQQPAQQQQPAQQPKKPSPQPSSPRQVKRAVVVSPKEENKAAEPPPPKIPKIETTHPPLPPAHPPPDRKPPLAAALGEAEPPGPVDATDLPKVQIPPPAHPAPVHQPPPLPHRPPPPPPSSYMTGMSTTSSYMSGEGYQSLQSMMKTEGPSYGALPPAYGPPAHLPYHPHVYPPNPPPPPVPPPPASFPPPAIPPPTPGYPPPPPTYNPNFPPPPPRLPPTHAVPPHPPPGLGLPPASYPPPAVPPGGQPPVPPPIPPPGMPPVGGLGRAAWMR

In the case of `CN(C)C/C=C/C(=O)Nc1ccc(C(=O)N2CCC[C@@H](Nc3ncc(Cl)c(-c4c[nH]c5ccccc45)n3)C2)cc1` [THZ531], the cell viability entry in experiment [1] is reported as “dose-dependent decreases in cell viability”. In addition, the CDK12 kinase activity entry in experiment [2] was “dose-dependent inhibition of kinase function”.

On to `O=C(NS(=O)(=O)c1ccc(Br)s1)c1ccc(Cl)cc1Cl` [tasisulam], for which the “phenocopy of CDK12 knockout (cellular and structural changes)” value in experiment [3] is on record as “phenocopy CDK12 loss”. Besides, the “phenocopy of RBM39 CRISPR/Cas9 knockout” value in experiment [4] was “phenocopy RNA-binding motif protein 39 (RBM39) CRISPR/Cas9 knockout”.

Consider `Nc1ccc(S(=O)(=O)Nc2cnc3c(Cl)cccc3n2)cc1` [CQS], for which, in experiment [3], the “phenocopy of CDK12 knockout (cellular and structural changes)” value was “phenocopy CDK12 loss”. The “phenocopy of RBM39 CRISPR/Cas9 knockout” value in experiment [4] was “phenocopy RNA-binding motif protein 39 (RBM39) CRISPR/Cas9 knockout”.

As to `Cn1cc(-n2cnc3c(NCc4nc5cc(Cl)c(Cl)cc5[nH]4)nc(N4CCOCC4)nc32)cn1` [SR4835], in experiment [1], the cell viability result is on record as “dose-dependent decreases in cell viability”.

On to `NS(=O)(=O)c1ccc(S(=O)(=O)Nc2cccc3c(Cl)c[nH]c23)cc1` [indisulam], for which the cell viability result in experiment [1] was “minimal effect on cell viability”. For the same compound, in experiment [2], the CDK12 kinase activity result is listed as “does not affect CDK12 kinase activity”. Moreover, in experiment [3], the “phenocopy of CDK12 knockout (cellular and structural changes)” value was “phenocopy CDK12 loss”. For the same compound, in experiment [4], the “phenocopy of RBM39 CRISPR/Cas9 knockout” value was “phenocopy RNA-binding motif protein 39 (RBM39) CRISPR/Cas9 knockout”.
